Experimental data reported in article PMC10287566, “Signaling-specific inhibition of the CB1 receptor for cannabis use disorder: phase 1 and phase 2a randomized trials” (Nature Medicine, 2023).
Read-outs that look alike come from different tables or passages of the source.

How the values were obtained:
human CB1 = human CB1 (Homo sapiens, UniProt P21554); assay: [3H]CP55,940 equilibrium binding, HEK293-hCB1 cell membranes; design: 3x hemagglutinin (3HA) (N); expressed in transfected cells; membrane preparation; conditions: up to 10 µM
Chain of human CB1 (P21554 whole entry): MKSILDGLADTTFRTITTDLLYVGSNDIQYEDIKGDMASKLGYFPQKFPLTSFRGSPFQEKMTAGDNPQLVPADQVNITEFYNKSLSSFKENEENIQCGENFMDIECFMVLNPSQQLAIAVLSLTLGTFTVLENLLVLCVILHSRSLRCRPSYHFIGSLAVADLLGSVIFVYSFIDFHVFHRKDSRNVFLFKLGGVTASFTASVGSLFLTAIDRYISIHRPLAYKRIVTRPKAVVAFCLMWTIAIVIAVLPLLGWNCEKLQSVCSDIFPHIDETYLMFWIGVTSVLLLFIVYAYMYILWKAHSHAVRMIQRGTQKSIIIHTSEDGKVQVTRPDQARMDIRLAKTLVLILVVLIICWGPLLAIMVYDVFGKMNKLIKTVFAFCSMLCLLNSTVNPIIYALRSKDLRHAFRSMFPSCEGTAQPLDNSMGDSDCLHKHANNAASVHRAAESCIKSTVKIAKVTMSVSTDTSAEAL

mice [1] = assay: THC-induced increase in food intake (fasting-refeeding); assay type: in vivo
volunteers with CUD = assay: Phase 2a study, precipitated withdrawal, mood and sleep; assay type: in vivo, human
Procedure: In addition to general safety assessment of vital signs, clinical chemistry and AEs, symptoms of cannabis withdrawal were assessed by daily measures of food intake, body weight, sleep efficiency[23],[41],[42] and mood[22]. […]
We measured seven subscales of the 44-item VAS (‘Miserable’, ‘Anxious’, ‘Tired’, ‘Confused’, ‘Irritable’, ‘Social’ and ‘Bad effect’). […] Ratings were then done repeatedly (five times at 20, 40, 60, 90 and 120 min after cannabis).

mice [2] = assay: Anxiety-related behavior, elevated plus maze, repeated treatment; assay type: in vivo; conditions: mice, elevated plus maze, highest dose tested 15 mg/kg
Description: Anxiety-like behaviors were studied in the elevated plus maze (EPM), a rodent model used to evaluate the putative anxiogenic or anxiolytic effects of pharmacological compounds. Depression-related behaviors were studied using the sucrose preference test as a model of anhedonia, one of the cardinal symptoms of depression.
The EPM apparatus comprises four elevated arms arranged in a cross-like shape, with the two opposite arms enclosed by walls and the other two arms open. For all experiments, mice were placed in the center of the EPM and were free to explore the maze for 5 min after receiving the treatment. The time spent and the number of entries into the open and closed arms were measured by an automatic video tracking system (EthoVision XT version 12, Noldus Information Technology). A decrease in the percentage of visits and/or the time spent in open arms is considered an index of increased anxiety.
The EPM assessment was done on day 26, and the sucrose preference test was done on day 28.

[3] = Plasma and brain pharmacokinetics of oral AEF0117 in mice; assay type: in vivo; conditions: mouse; for Kp: brain/plasma
Procedure: Blood samples were centrifuged within 15 min after collection (~7 min at 1,600g and 4 °C) to obtain plasma. The brain was also harvested, weighed and frozen on dry ice. Plasma and brains were stored below −70 °C until analysis.

[4] = 91-d repeated oral toxicity study in dogs (GLP); assay type: in vivo; conditions: both sexes, Beagle, dog, in vivo
dogs = assay: 91-d repeated oral toxicity study in dogs (GLP); assay type: in vivo
[5] = SAD study, plasma pharmacokinetics; assay type: in vivo; conditions: human, oral; for Cmax: read-out: Cmax, mean (±SD); for half-life: SAD, evaluated 0-144 h, underestimated, read-out: t½, min-max
Procedure: For both SAD and MAD studies, the PK parameters were calculated using standard non-compartmental methods for those with sufficient plasma concentration data.

[6] = Phase 2a study, plasma pharmacokinetics; assay type: in vivo, human; conditions: for Cmax: human, plasma, in the range predicted from animal data
Procedure: THC and its metabolites (11-OH-THC and 11-COOH-THC) were assessed at the same timepoints. […] THC and its metabolites analyses were performed using PD dataset (n = 13 for both doses).
PK parameters for AEF0117 were subject to descriptive statistics separately for each treatment group.

mice [7] = assay: THC-induced impairment of reality testing; assay type: in vivo
THC behavioral effects = assay: Inhibition of THC effects in vivo (summary over behavioral models); design: species or system mice, rats and non-human primates
Procedure: Statistical analyses were carried out using GraphPad Prism, Statistica (Statsoft) or SigmaPlot (Systat Software) software. […] When appropriate, significant main effects were analyzed by subsequent multiple paired comparisons or multiple comparisons versus the control group using the appropriate post hoc test (Dunnett, Tukey or Sidak test). Different but similar post hoc tests were used because the experiments were performed by independent research groups that used similar but not identical statistical procedures. […] For non-parametric analysis, a Kruskal–Wallis ANOVA was used, followed, when appropriate, by the Mann–Whitney test for pairwise comparisons. Unless otherwise stated, all the performed statistical tests were two-sided. The ID50 or IC50 was estimated by nonlinear regression using the ‘log(inhibitor) versus response’ equation model with GraphPad Prism software. All results are expressed as mean ± s.e.m. The significance threshold was set at P < 0.05.

[8] = both sexes, CD-1 Swiss, plasma, mice po 0.3 mg/kg single
[9] = both sexes, CD-1 Swiss, plasma, mice po 4 mg/kg single
[10] = both sexes, CD-1 Swiss, plasma, mice po 10 mg/kg single
[11] = end of drug withdrawal period (week 18)

COc1ccc(CO[C@H]2CC[C@@]3(C)C(=CC[C@H]4[C@@H]5CC[C@H](C(C)=O)[C@@]5(C)CC[C@@H]43)C2)cc1 [AEF0117, 3β-(4-methoxybenzyloxy)pregn-5-en-20-one]
effect on equilibrium binding of [3H]CP55,940 (human CB1): does not modify | THC's effects on food intake (mice [1]): inhibited | % Inhibition (mice [1]; Increase in food intake): 100% | ID50 (mice [1]; Increase in food intake): 15 µg/kg | ID100 (mice [1]; Increase in food intake): 50 µg/kg | 'Social' subscale rating after smoking cannabis, mean (SEM) (volunteers with CUD; 0.06 mg cohort, Day 1): 66.9 (4.3) | 'Social' subscale, AEF0117-Placebo (volunteers with CUD; 0.06 mg cohort, Day 1): -5.9 | 'Social' subscale rating after smoking cannabis, mean (SEM) (volunteers with CUD; 0.06 mg cohort, Day 2): 67.4 (5.8) | 'Social' subscale, AEF0117-Placebo (volunteers with CUD; 0.06 mg cohort, Day 2): -3.1 | 'Social' subscale rating after smoking cannabis, mean (SEM) (volunteers with CUD; 0.06 mg cohort, Day 3): 64.4 (6.0) | 'Social' subscale, AEF0117-Placebo (volunteers with CUD; 0.06 mg cohort, Day 3): -6.6 | 'Social' subscale rating after smoking cannabis, mean (SEM) (volunteers with CUD; 0.06 mg cohort, Day 4): 63.9 (5.6) | 'Social' subscale, AEF0117-Placebo (volunteers with CUD; 0.06 mg cohort, Day 4): -7.8 | 'Social' subscale rating after smoking cannabis, mean (SEM) (volunteers with CUD; 0.06 mg cohort, Day 5): 64.0 (5.8) | 'Social' subscale, AEF0117-Placebo (volunteers with CUD; 0.06 mg cohort, Day 5): -6.0 | 'Social' subscale rating after smoking cannabis, mean (SEM) (volunteers with CUD; 1 mg cohort, Day 1): 71.9 (5.5) | 'Social' subscale, AEF0117-Placebo (volunteers with CUD; 1 mg cohort, Day 1): 3.9 | 'Social' subscale rating after smoking cannabis, mean (SEM) (volunteers with CUD; 1 mg cohort, Day 2): 71.4 (5.2) | 'Social' subscale, AEF0117-Placebo (volunteers with CUD; 1 mg cohort, Day 2): 1.3 | 'Social' subscale rating after smoking cannabis, mean (SEM) (volunteers with CUD; 1 mg cohort, Day 3): 71.1 (5.6) | 'Social' subscale, AEF0117-Placebo (volunteers with CUD; 1 mg cohort, Day 3): 0.1 | 'Social' subscale rating after smoking cannabis, mean (SEM) (volunteers with CUD; 1 mg cohort, Day 4): 67.0 (5.9) | 'Social' subscale, AEF0117-Placebo (volunteers with CUD; 1 mg cohort, Day 4): -6.0 | 'Social' subscale rating after smoking cannabis, mean (SEM) (volunteers with CUD; 1 mg cohort, Day 5): 69.5 (6.6) | 'Social' subscale, AEF0117-Placebo (volunteers with CUD; 1 mg cohort, Day 5): -1.6 | difference between AEF0117 and placebo on the 'Social' subscale (volunteers with CUD; 100-mm scale, after cannabis): < 8 mm | precipitation of cannabis withdrawal (volunteers with CUD; Phase 2a, 0.06 and 1 mg): little to suggest that AEF0117 precipitated cannabis withdrawal | 'Irritable' subscale, effect of treatment (volunteers with CUD; Treatment x Day x Time, before cannabis): small but significant effect | Overall effect: increase in anxiety-related behaviors (mice [2]): No | Tmax ([3]; CD-1 Swiss (mice), Sprague Dawley (rats), brain, oral, mice and rats, read-out: tmax in the brain): 7 h | Kp ([3]; CD-1 Swiss (mice), Sprague Dawley (rats), po, mice and rats, oral, corn oil, read-out: brain/plasma concentration AUC ratio): > 4 | Tmax ([3]; CD-1 Swiss (mice), Sprague Dawley (rats), Beagle (dogs), plasma, po, mice, rats and dogs, single per os, read-out: tmax): ~3 h | Kp ([3]; both sexes, CD-1 Swiss, oral, 0.3 mg/kg, read-out: AUClast brain/plasma ratio): 7.3 | half-life ([3]; both sexes, CD-1 Swiss, plasma, po, mice per os, read-out: half-life): 606 to 1540 min | AUC(0-t) [3, 8]: 252 ng·h/mL | Cmax [3, 8]: 35.5 ng/mL | Tmax ([3]; both sexes, CD-1 Swiss, plasma, mice po 0.3 mg/kg single, read-out: tmax): 2.5 h | half-life ([3]; both sexes, CD-1 Swiss, plasma, mice po 0.3 mg/kg single, read-out: t½ (converted)): 1070 min | AUC(0-t) [3, 9]: 3730 ng·h/mL | Cmax [3, 9]: 490 ng/mL | Tmax ([3]; both sexes, CD-1 Swiss, plasma, mice po 4 mg/kg single, read-out: tmax): 2.25 h | half-life ([3]; both sexes, CD-1 Swiss, plasma, mice po 4 mg/kg single, read-out: t½ (converted)): 1100 min | AUC(0-t) [3, 10]: 11300 ng·h/mL | Cmax [3, 10]: 1790 ng/mL | Tmax ([3]; both sexes, CD-1 Swiss, plasma, mice po 10 mg/kg single, read-out: tmax): 2.25 h | half-life ([3]; both sexes, CD-1 Swiss, plasma, mice po 10 mg/kg single, read-out: t½ (converted)): 1090 min | Tmax ([3]; both sexes, CD-1 Swiss, plasma, mice, oral, corn oil, read-out: Tmax): 3 h | NOAEL at 91 d ([4]; 91-d repeated oral): > 65 mg/kg/day | NOAEL at 91 day ([4]; oral, 91-day, highest dose tested): 65 mg/kg/day | change in eosinophil count (dogs; all dose groups, week 5): -41% | change in eosinophil count (dogs; all dose groups, week 14): -54% | change in lymphocyte count (dogs; all dose groups, week 14): -17 to -24% | change in eosinophil count (dogs; [11]): -66% | change in lymphocyte count (dogs; [11]): -19% | change in thymus weight vs vehicle (dogs; end of treatment period): -15 to -24% | Cmax ([5]; both sexes, SAD Day 1, 2 mg): 14.7 ± 4.3 ng/mL | Tmax ([5]; both sexes, SAD Day 1, 2 mg, read-out: tmax, median (range)): 3 h | half-life ([5]; both sexes, 0.6 mg): 3.16 to 9.53 days | Tmax ([5]; healthy volunteers, read-out: Tmax): ~3 h | Cmax ([5]; SAD Day 1, 0.2 mg): 1.3 ± 0.3 ng/mL | Tmax ([5]; SAD Day 1, 0.2 mg, read-out: tmax, median (range)): 3 h | Cmax ([5]; SAD Day 1, 0.6 mg): 3.5 ± 1 ng/mL | Tmax ([5]; SAD Day 1, 0.6 mg, read-out: tmax, median (range)): 2.5 h | Cmax ([5]; SAD Day 1, 6 mg): 38.6 ± 8.1 ng/mL | Tmax ([5]; SAD Day 1, 6 mg, read-out: tmax, median (range)): 2 h | half-life ([5]; 2 mg): 3.52 to 7.48 days | half-life ([5]; 6 mg): 2.89 to 6.77 days | Tmax ([5]; healthy volunteers, SAD and MAD, read-out: median tmax): 2 to 3 h | plasma concentration below LLOQ after washout ([6]; 0.06 mg first, >=14 d later, 3 participants): 0.2 to 9.3 pg/mL | mean concentration 24 h after 5th dose higher than 24 h after 1st dose ([6]; Phase 2a, 0.06 and 1 mg): 30-50% | Cmax ([6]; 0.06 mg): ≥ 0.15 ng/mL | Cmax ([6]; 1 mg): ≥ 1.5 ng/mL | THC impairment in reality testing (mice [7]): inhibited | % Inhibition (mice [7]; Impairment of reality testing): 100% | ID100 (mice [7]; Impairment of reality testing): ≤ 15 µg/kg | most observed ID50 for inhibiting the effects of THC (THC behavioral effects; mice and non-human primates, oral): 5 µg/kg | most observed ID50 for inhibiting the effects of THC (THC behavioral effects; mice, rats and non-human primates): 5 µg/kg | ID100 for THC effects in fewer cases (THC behavioral effects; oral, 3 h before THC): 1.5 µg/kg | most frequently observed ID100 for THC effects (THC behavioral effects; oral, 3 h before THC): 15 µg/kg
